Results: US6492374B2, “Benzofuran derivatives, their preparation and use” (H. Lundbeck A/S, priority 1998, dated 2002)
Read-outs that look alike come from different tables or passages of the source.

Key:
[1] = target: T1, cloned human 5-HT1A receptors (Homo sapiens, UniProt P08908); assay: Inhibition of 3H-5-CT binding to human 5-HT1A receptors
T1 construct: expressed in transfected cells; host or cells: HeLa cells (HA7), stably transfected; cell homogenate
T1 sequence (P08908 1-422): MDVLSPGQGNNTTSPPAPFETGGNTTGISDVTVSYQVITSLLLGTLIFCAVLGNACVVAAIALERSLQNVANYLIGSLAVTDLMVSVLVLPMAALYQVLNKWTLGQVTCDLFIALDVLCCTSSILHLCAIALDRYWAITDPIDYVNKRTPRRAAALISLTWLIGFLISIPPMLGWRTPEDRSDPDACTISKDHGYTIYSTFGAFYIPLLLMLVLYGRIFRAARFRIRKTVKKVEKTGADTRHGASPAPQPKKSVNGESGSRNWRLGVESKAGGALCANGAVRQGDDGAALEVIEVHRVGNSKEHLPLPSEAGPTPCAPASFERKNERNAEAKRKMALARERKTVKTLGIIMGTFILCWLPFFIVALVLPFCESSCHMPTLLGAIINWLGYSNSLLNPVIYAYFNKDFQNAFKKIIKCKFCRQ
Description: Inhibition of ^3H-5CT Binding to Human 5-HT1A Receptors
Human 5-HT1A receptors (40 μg of cell homogenate) were incubated for 15 minutes at 37° C. in 50 mM Tris buffer at pH 7.7 in the presence of ^3H-5-CT. Non-specific binding was determined by including 10 μM of metergoline. The reaction was terminated by rapid filtration through Unifilter GF/B filters on a Tomtec Cell Harvester. Filters were counted in a Packard Top Counter.

[2] = system: serotonin reuptake (3H-5-HT uptake into whole rat brain synaptosomes); assay: Inhibition of 3H-5-HT uptake into rat brain synaptosomes; type: biochemical
Description: Inhibition of ^3H-5HT Uptake Into Rat Brain Synaptosomes
Using this method, the ability of drugs to inhibit the accumulation of ^3H-5-HT into whole rat brain synaptosomes is determined in vitro.

[3] = cloned human 5-HT1A receptors expressed in HeLa cells (HA7)

SMILES | IC50 [1, 3] | Inhibition of serotonin reuptake % inhibition at 100 nM [2] | other results
C=CCN(CCCC1(c2ccc(F)cc2)OCc2cc(C#N)ccc21)CCc1cccc(OC)c1 (centres unmarked) [Compound 4c, 1-(4-Fluorophenyl)-1-[3-[[2-(3-methoxyphenyl)ethyl](prop-2-en-1-yl)amino]propyl]-1,3-dihydroisobenzofuran-5-carbonitrile] | 11 nM | 4% inh. at 100 nM | 
C=CCN(CCCC1(c2ccc(F)cc2)OCc2cc(C#N)ccc21)CCc1ccccc1OC (centres unmarked) [Compound 4d, 1-(4-Fluorophenyl)-1-[3-[[2-(2-methoxyphenyl)ethyl](prop-2-en-1-yl)amino]propyl]-1,3-dihydroisobenzofuran-5-carbonitrile] | 4.5 nM | 7% inh. at 100 nM | 
CN(CCCC1(c2ccc(F)cc2)OCc2cc(C#N)ccc21)CCOCc1ccccc1 (centres unmarked) [Compound 4q, 1-[3-[(2-Benzyloxyethyl)methylamino]propyl]-1-(4-fluorophenyl)-1,3-dihydroisobenzofuran-5-carbonitrile] | 16 nM | 60% inh. at 100 nM | 
C=CCN(CCCC1(c2ccc(F)cc2)OCc2cc(C#N)ccc21)CCOCc1ccccc1 (centres unmarked) [Compound 4r, 1-[3-[(2-Benzyloxyethyl)(prop-2-en-1-yl)amino]propyl]-1-(4-fluorophenyl)-1,3-dihydroisobenzofuran-5-carbonitrile] | 11 nM | 19% inh. at 100 nM | 
C=CCN(CCCc1c[nH]c2ccc(F)cc12)CCCC1(c2ccc(F)cc2)OCc2cc(C#N)ccc21 (centres unmarked) [Compound 13d, 1-[3-[[3-(5-Fluoro-1H-indol-3-yl)propyl](prop-2-en-1-yl)amino]propyl]-1-(4-fluorophenyl)-1,3-dihydroisobenzofuran-5-carbonitrile] | 15 nM |  | IC50 [2]: 21 nM
CCN(CCCc1c[nH]c2ccc(C)cc12)CCCC1(c2ccc(F)cc2)OCc2cc(C#N)ccc21 (centres unmarked) [Compound 12o, 1-[3-[Ethyl[3-(5-methyl-1H-indol-3-yl)propyl]amino]propyl]-1-(4-fluorophenyl)-1,3-dihydroisobenzofuran-5-carbonitrile] | 6.2 nM | 49% inh. at 100 nM | 
CN(CCCC1(c2ccc(F)cc2)OCc2cc(C#N)ccc21)CCc1c[nH]c2ccccc12 (centres unmarked) [Compound 4a, 1-[3-[[2-(1H-Indol-3-yl)ethyl]methylamino]propyl]-1-(4-fluorophenyl)-1,3-dihydroisobenzofuran-5-carbonitrile] | 23 nM |  | IC50 [2]: 54 nM
N#Cc1ccc2c(c1)COC2(CCCN(CCCc1c[nH]c2ccc(F)cc12)CCOc1ccccc1)c1ccc(F)cc1 (centres unmarked) [Compound 13u, 1-[3-[[3-(5-Fluoro-1H-indol-3-yl)propyl](2-phenoxyethyl)amino]propyl]-1-(4-fluorophenyl)-1,3-dihydroisobenzofuran-5-carbonitrile] | 22 nM |  | 
CCN(CCCC1(c2ccc(F)cc2)OCc2cc(C#N)ccc21)CCc1c[nH]c2ccc(Br)cc12 (centres unmarked) [Compound 12ab, 1-[3-[[2-(5-Bromo-1H-indol-3-yl)ethyl]ethylamino]propyl]-1-(4-fluorophenyl)-1,3-dihydroisobenzofuran-5-carbonitrile] | 20 nM | 50% inh. at 100 nM | 
C=CCN(CCCOc1cccc(OC)c1)CCCC1(c2ccc(F)cc2)OCc2cc(C#N)ccc21 (centres unmarked) [Compound 4p] | 19 nM | 6% inh. at 100 nM | 
N#Cc1ccc2c(c1)COC2(CCCN1CCN(c2ccc3[nH]ccc3c2)CC1)c1ccc(F)cc1 (centres unmarked) [Compound 2n, 1-[3-[4-(1H-Indol-5-yl)piperazinyl]propyl]-1-(4-fluorophenyl)-1,3-dihydroisobenzofuran-5-carbonitrile] | 15 nM |  | 
CN(CCCC1(c2ccc(F)cc2)OCc2cc(C#N)ccc21)CCc1c[nH]c2c(F)cccc12 (centres unmarked) [Compound 12b, 1-[3-[[2-(7-Fluoro-1H-indol-3-yl)ethyl]methylamino]propyl]-1-(4-fluorophenyl)-1,3-dihydroisobenzofuran-5-carbonitrile] |  |  | IC50 [1]: 43 nM
CN(CCCc1c[nH]c2ccccc12)CCCC1(c2ccc(F)cc2)OCc2cc(C#N)ccc21 (centres unmarked) [Compound 4s, 1-[3-[[3-(1H-Indol-3-yl)propyl]methylamino]propyl]-1-(4-fluorophenyl)-1,3-dihydroisobenzofuran-5-carbonitrile] | 30 nM |  | IC50 [2]: 35 nM
COc1ccccc1N1CCN(CCCC2(c3ccc(F)cc3)OCc3cc(C#N)ccc32)CC1 (centres unmarked) [Compound 2a, 1-(4-Fluorophenyl)-1-[3-[4-(2-methoxyphenyl)piperazinyl]propyl]-1,3-dihydroisobenzofuran-5-carbonitrile] | 1 nM |  | 
C=CCN(CCCc1c[nH]c2ccccc12)CCCC1(c2ccc(F)cc2)OCc2cc(C#N)ccc21 (centres unmarked) [Compound 4t, 1-[3-[[3-(1H-Indol-3-yl)propyl](prop-2-en-1-yl)amino]propyl]-1-(4-fluorophenyl)-1,3-dihydroisobenzofuran-5-carbonitrile] |  | 73% inh. at 100 nM | inhibition at 0.1 µM ([1]; read-out: Inhibition of 3H-5-CT binding % inhibition at 100 nM, at 100 nM, cloned human 5-HT1A receptors expressed in HeLa cells (HA7)): 69%
Cc1ccc2[nH]cc(CCN(CCCC3(c4ccc(F)cc4)OCc4cc(C#N)ccc43)CCOc3ccccc3)c2c1 (centres unmarked) [Compound 13q, 1-[3-[[2-(5-Methyl-1H-indol-3-yl)ethyl](2-phenoxyethyl)amino]propyl]-1-(4-fluorophenyl)-1,3dihydroisobenzofuran-5-carbonitrile] | 12 nM |  | 
N#Cc1ccc2c(c1)COC2(CCCN(CCOc1ccccc1)CCc1c[nH]c2ccc(F)cc12)c1ccc(F)cc1 (centres unmarked) [Compound 13r, 1-[3-[[2-(5-Fluoro-1H-indol-3-yl)ethyl](2-phenoxyethyl)amino]propyl]-1-(4-fluorophenyl)-1,3-dihydroisobenzofuran-5-carbonitrile] | 8.9 nM |  | 
CC(C)c1ccc2[nH]cc(CCN(CCCC3(c4ccc(F)cc4)OCc4cc(C#N)ccc43)CCOc3ccccc3)c2c1 (centres unmarked) [Compound 13x, 1-[3-[(2-Phenoxyethyl)[2-[5-(2-propyl)-1H-indol-3-yl]ethyl]amino]propyl]-1-(4-fluorophenyl)-1,3-dihydroisobenzofuran-5-carbonitrile] | 26 nM |  | 
N#Cc1ccc2c(c1)COC2(CCCN1CCC(c2c[nH]c3cc(Cl)ccc23)CC1)c1ccc(F)cc1 (centres unmarked) [Compound 2o, 1-[3-[4-(6-chloro-1H-Indol-3-yl)piperidinyl]propyl]-1-(4fluorophenyl)-1,3-dihydroisobenzofuran-5-carbonitrile] | 12 nM |  | 
C=CCN(CCCc1cccc(OC)c1)CCCC1(c2ccc(F)cc2)OCc2cc(C#N)ccc21 (centres unmarked) [Compound 4l] |  | 27% inh. at 100 nM | 
C#CCN(CCCc1c[nH]c2ccccc12)CCCC1(c2ccc(F)cc2)OCc2cc(C#N)ccc21 (centres unmarked) [Compound 4u, 1-[3-[[3-(1H-Indol-3-yl)propyl](prop-2-yl-1-yl)amino]propyl]-1-(4-fluorophenyl)-1,3-dihydroisobenzofuran-5-carbonitrile] |  | 44% inh. at 100 nM | 
Cc1ccc2[nH]cc(CCCN(CCCC3(c4ccc(F)cc4)OCc4cc(C#N)ccc43)CCOc3ccccc3)c2c1 (centres unmarked) [Compound 13t, 1-[3-[[3-(5-Methyl-1H-indol-3-yl)propyl](2-phenoxyethyl)amino]propyl]-1-(4-fluorophenyl)-1,3-dihydroisobenzofuran-5-carbonitrile] | 23 nM |  | 
N#Cc1ccc2c(c1)COC2(CCCN(CCCc1c[nH]c2ccccc12)CCOc1ccccc1)c1ccc(F)cc1 (centres unmarked) [Compound 13p, 1-[3-[[3-(1H-Indol-3-yl)propyl](2-phenoxyethyl)amino]propyl]-1-(4-fluorophenyl)-1,3-dihydroisobenzofuran-5-carbonitrile] | 23 nM |  | 
C=CCN(CCCc1c[nH]c2ccc(Cl)cc12)CCCC1(c2ccc(F)cc2)OCc2cc(C#N)ccc21 (centres unmarked) [Compound 13k, 1-[3-[[3-(5-Chloro-1H-indol-3-yl)propyl](prop-2-en-1-yl)amino]propyl]-1-(4-fluorophenyl)-1,3-dihydroisobenzofuran-5-carbonitrile] | 19 nM |  | 
N#Cc1ccc2c(c1)COC2(CCCN1CCN(c2cccc3[nH]ccc23)CC1)c1ccc(F)cc1 (centres unmarked) [Compound 2m, 1-[3-[4-(1H-Indol-4-yl)piperazinyl]propyl]-1-(4fluorophenyl)-1,3-dihydroisobenzofuran-5carbonitrile] | 4.7 nM |  | 
N#Cc1ccc2c(c1)COC2(CCCN(CCOc1ccccc1)CCc1c[nH]c2c(F)cc(F)cc12)c1ccc(F)cc1 (centres unmarked) [Compound 13v, 1-[3-[[2-(5,7-Difluoro-1H-indol-3-yl)ethyl](2-phenoxyethyl)amino]propyl]-1-(4-fluorophenyl)-1,3-dihydroisobenzofuran-5-carbonitrile] | 23 nM |  | 
COc1ccccc1OCCCN(C)CCCC1(c2ccc(F)cc2)OCc2cc(C#N)ccc21 (centres unmarked) [Compound 4m] |  | 74% inh. at 100 nM | 
